Consider two molecules from paper PMC7898795 (Angewandte Chemie (International Ed. in English), 2020).

Values after ≈ are worked out from the molar mass of the structure shown.

The nature of the data set: Water solubility assay. The following applies: for solubility thermodynamic at 24 h: thermodynamic from solid. Format: physicochemical.
Setting [1] is: 50 mM TEAA buffer, pH 7.9, aqueous buffer.

`C=C(NC(=O)C(=C)NC(=O)c1csc(C2=N[C@@H]3c4csc(n4)[C@H]4NC(=O)c5csc(n5)[C@H]([C@](C)(O)[C@@H](C)O)NC(=O)[C@H]5CSC(=N5)/C(=C/C)NC(=O)[C@H]([C@@H](C)O)NC(=O)c5csc(n5)[C@]3(CC2)NC(=O)[C@H](C)NC(=O)C(=C)NC(=O)[C@H](C)NC(=O)[C@H]([C@@H](C)CC)N[C@@H]2C=Cc3c([C@H](C)O)cc(nc3[C@H]2O)C(=O)O[C@@H]4C)n1)C(N)=O` [Thiostrepton, thiostrepton, reference compound]: the solubility (thermodynamic) at 24 h was 5 ± 0.2 µg/mL (≈ 3 µM) under setting [1] and 6.4 ± 0.1 µg/mL (≈ 3.84 µM) (ddH2O, water).

`C=C1NC(=O)[C@H](C)NC(=O)[C@H]([C@@H](C)CC)N[C@@H]2C=Cc3c([C@H](C)O)cc(nc3[C@H]2O)C(=O)O[C@H](C)[C@@H]2NC(=O)c3csc(n3)[C@H]([C@](C)(O)[C@@H](C)O)NC(=O)[C@H]3CSC(=N3)/C(=C/C)NC(=O)[C@H]([C@@H](C)O)NC(=O)c3csc(n3)[C@]3(CCC(c4nc(C(=O)NC(CB(O)O)C(=O)NC(CB(O)O)C(N)=O)cs4)=N[C@@H]3c3csc2n3)NC(=O)[C@H](C)NC1=O` (stereo partly drawn) [compound 3]: the thermodynamic solubility at 24 h was determined as 422 ± 8.5 µg/mL (≈ 240 µM) under setting [1] and 170 ± 2.6 µg/mL (≈ 96.6 µM) (ddH2O, water). The “times more water-soluble than thiostrepton, in 50 mM TEAA (pH 7.9)” value (ratio of solubility to that of thiostrepton in 50 mM TEAA pH 7.9) was 84 ×. Where the note is “ratio of solubility to that of thiostrepton in ddH2O”, the “times more water-soluble than thiostrepton, in ddH2O” value worked out at 27 ×.

In general, thermodynamic solubility refers to solubility found after equilibrating the solid with the medium.
